Literature values, collected in publication PMC6318274, “Lattice engineering enables definition of molecular features allowing for potent small-molecule inhibition of HIV-1 entry” (Nature Communications, 2019).
Read-outs that look alike come from different tables or passages of the source.

Tested on: HIV-1 Env-pseudoviruses (208-strain panel)
Details: cited from earlier work; for IC50: read-out: IC50; for % Neutralized / Total Neutralized: 208 viruses

SMILES: COc1cnc(-n2cnc(C)n2)c2[nH]cc(C(=O)C(=O)N3CCN(C(=O)c4ccccc4)CC3)c12 [BMS-626529]
- IC50 (CNE20, clade BC): 339 nM
- IC50 (CNE21, clade BC): 2 nM
- IC50 (CNE30, clade C): 1 nM
- IC50 (CNE31, clade C): 23 nM
- IC50 (CNE40, clade BC): 38 nM
- IC50 (CNE53, clade C): 0.5 nM
- IC50 (CNE55, clade AE): 4770 nM
- IC50 (CNE56, clade AE): > 20000 nM
- IC50 (CNE57, clade B): 2 nM
- IC50 (CNE58, clade C): 4 nM
- IC50 (CNE59, clade AE): > 20000 nM
- IC50 (Ce1176.A3, clade C): 10 nM
- IC50 (DJ263.8, clade AG): 11 nM
- IC50 (DU123.06, clade C): 5 nM
- IC50 (DU151.02, clade C): 6 nM
- IC50 (DU156.12, clade C): 3 nM
- IC50 (DU172.17, clade C): 8 nM
- IC50 (DU422.01, clade C): 8 nM
- IC50 (HO86.8, clade B): 20 nM
- IC50 (HT593.1, clade B): 0.9 nM
- IC50 (HXB2.DG, clade B): 1 nM
- % Neutralized (IC50 <0.01ug/ml): 46%
- Total Neutralized (IC50 <0.01ug/ml): 95
- % Neutralized (IC50 <0.1ug/ml): 71%
- Total Neutralized (IC50 <0.1ug/ml): 147
- % Neutralized (IC50 <1.0ug/ml): 80%
- Total Neutralized (IC50 <1.0ug/ml): 167
- % Neutralized (IC50 <10ug/ml): 89%
- Total Neutralized (IC50 <10ug/ml): 185
- % Neutralized (IC50 <50ug/ml): 91%
- Total Neutralized (IC50 <50ug/ml): 189
- IC50 (JRCSF.JB, clade B): 0.3 nM
- IC50 (JRFL.JB, clade B): 0.4 nM
- IC50 (KER2008.12, clade A): 1870 nM
- IC50 (KER2018.11, clade A): 8 nM
- IC50 (KNH1209.18, clade A): 29 nM
- IC50 (M02138, clade AE): 2810 nM
- IC50 (MB201.A1, clade A): 628 nM
- IC50 (MB539.2B7, clade A): 191 nM
- IC50 (MI369.A5, clade A): 13 nM
- IC50 (MN.3, clade B): 10 nM
- IC50 (MS208.A1, clade A): 11 nM
- IC50 (MW965.26, clade C): 433 nM
- IC50 (NKU3006.ec1, clade D): 5 nM
- IC50 (P0402.c2.11, clade G): 32 nM
- IC50 (P1981.C5.3, clade G): 209 nM
- IC50 (PVO.04, clade B): 3 nM
- IC50 (Q23.17, clade A): 12 nM
- IC50 (Q168.a2, clade AD): 115 nM
- IC50 (Q259.17, clade A): 1230 nM
- IC50 (Q461.e2, clade AD): 12 nM
- IC50 (Q769.d22, clade A): 123 nM
- IC50 (Q769.h5, clade A): 427 nM
- IC50 (Q842.d12, clade A): 17 nM
- IC50 (QH209.14M.A2, clade A): 610 nM
- IC50 (QH0515.01, clade B): 12 nM
- IC50 (QH0692.42, clade B): 9 nM
- IC50 (R1166.c1, clade AE): > 20000 nM
- IC50 (R2184.c4, clade AE): > 20000 nM
- IC50 (R3265.c6, clade AE): 13000 nM
- IC50 (REJO.67, clade B): 1040 nM
- IC50 (RHPA.7, clade B): 4 nM
- IC50 (RW020.2, clade A): 71 nM
- IC50 (SC422.8, clade B): 2 nM
- IC50 (SF162.LS, clade B): 1 nM
- IC50 (SO18.18, clade C): 3 nM
- IC50 (SS1196.01, clade B): 7050 nM
- IC50 (T33-7, clade AG): 2810 nM
- IC50 (T250-4, clade AG): 15 nM
- IC50 (T251-18, clade AG): 19 nM
- IC50 (T253-11, clade AG): 1 nM
- IC50 (T255-34, clade AG): 82 nM
- IC50 (T257-31, clade AG): 57 nM
- IC50 (T266-60, clade AG): 1370 nM
- IC50 (T278-50, clade AG): 0.2 nM
- IC50 (T280-5, clade AG): 10 nM
- IC50 (TH023.6, clade AE): > 20000 nM
- IC50 (TH966.8, clade AE): > 20000 nM
- IC50 (TH976.17, clade AE): > 20000 nM
- IC50 (THRO.18, clade B): 3 nM
- IC50 (TRJO.58, clade B): 1 nM
- IC50 (TRO.11, clade B): 1080 nM
- IC50 (TV1.29, clade C): 67 nM
- IC50 (TZA125.17, clade C): 14 nM
- IC50 (TZBD.02, clade C): 5 nM
- IC50 (UG021.16, clade D): 13 nM
- IC50 (UG024.2, clade D): 566 nM
- IC50 (UG037.8, clade A): 1010 nM
- IC50 (WITO.33, clade B): 5 nM
- IC50 (X1254.c3, clade G): 43 nM
- IC50 (X1632.S2.B10, clade G): 54 nM
- IC50 (X2088.c9, clade G): 3 nM
- IC50 (X2131.C1.B5, clade G): 267 nM
- IC50 (X2278.C2.B6, clade B): 1260 nM
- IC50 (YU2.DG, clade B): 0.9 nM
- IC50 (ZA012.29, clade C): 7 nM
- IC50 (ZM53.12, clade C): 10 nM
- IC50 (ZM55.28a, clade C): 6 nM
- IC50 (ZM106.9, clade C): 17 nM
- IC50 (ZM109.4, clade C): 1 nM
- IC50 (ZM135.10a, clade C): 889 nM
- IC50 (ZM176.66, clade C): 18 nM
- IC50 (ZM197.7, clade C): 6 nM
- IC50 (ZM214.15, clade C): 2 nM
- IC50 (ZM215.8, clade C): 2 nM
- IC50 (ZM233.6, clade C): 0.8 nM
- IC50 (ZM249.1, clade C): 18 nM
- IC50 ([…], clade C): 2 nM
- IC50 ([…], clade G): 120 nM
